{"source": "paper PMC3804415", "about": "(Bioorganic & medicinal chemistry, 2013)", "target": "T1, human QR2 (Homo sapiens, UniProt P16083)", "T1 sequence (P16083 1-231)": "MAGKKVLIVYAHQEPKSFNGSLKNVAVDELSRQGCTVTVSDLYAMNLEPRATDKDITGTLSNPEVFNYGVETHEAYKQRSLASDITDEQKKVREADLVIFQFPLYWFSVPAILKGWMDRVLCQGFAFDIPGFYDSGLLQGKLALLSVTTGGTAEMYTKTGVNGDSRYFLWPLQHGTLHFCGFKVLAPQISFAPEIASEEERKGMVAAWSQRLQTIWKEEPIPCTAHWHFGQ", "assay": "Steady-state kinetic assay of QR2 inhibition", "type": "biochemical", "settings": "for inhibition at 100 µM: read-out: average percent inhibition of QR2; for average percent inhibition of QR2: at 100 μM inhibitor"}
{"compound": "CC(C)Oc1cc(/C=C(\\C#N)c2ccc(O)cc2)cc(OC(C)C)c1", "note": "[Analogue 4a, (Z)-3-(3,5-diisopropoxyphenyl)-2-(4-hydroxyphenyl)acrylonitrile]", "values": [{"measurement": "inhibition at 100 µM", "result": "≤ 20", "unit": "%"}]}
{"compound": "COc1ccc(/C(C#N)=C/c2cc(OC(C)C)cc(OC(C)C)c2)cc1", "note": "[Analogue 4c, (Z)-3-(3,5-diisopropoxyphenyl)-2-(4-methoxyphenyl)acrylonitrile]", "values": [{"measurement": "inhibition at 100 µM", "result": "≤ 20", "unit": "%"}]}
{"compound": "CN(C)c1ccc(NC(=O)c2ccc(O)cc2)cc1", "note": "[Analogue 8f, N-(4-(dimethylamino)phenyl)-4-hydroxybenzamide]", "values": [{"measurement": "average percent inhibition of QR2", "result": "eliminates inhibition of QR2"}]}
{"compound": "CN(C)c1ccc(C(=O)Nc2cc(O)cc(O)c2)cc1", "note": "[Analogue 8k, N-(3,5-dihydroxyphenyl)-4-(dimethylamino)benzamide]", "values": [{"measurement": "average percent inhibition of QR2", "result": "eliminates inhibition of QR2"}]}
{"compound": "COc1cc(OC)cc(C(=O)Nc2ccc3ccccc3c2)c1", "note": "[Analogue 8p, 3,5-dimethoxy-N-(naphthalen-2-yl)benzamide]", "values": [{"measurement": "average percent inhibition of QR2", "result": "no inhibition of QR2"}]}
